Experimental data as given in patent US20230203440A1, “AXIAL STEM CELLS, METHODS OF PRODUCING AND USES THEREOF” (HELMHOLTZ ZENTRUM MUNCHEN - DEUTSCHES FORSCHUNGSZENTRUM FUR …, priority 2020, published 2023).

Legend:
hESCs = assay: Continuous CHIR99021 treatment of hESCs (time course, qPCR and RNA-seq); assay type: cell-based, human; conditions: continuous 10 μM treatment of hESCs, compared to transient activation for 24 hours
Description: In time course experiments cells were dissociated using Accutase (Sigma) and seeded into 12-well plates at 2.5×10^5 cells per well in mTesR1 medium supplemented with 10 μM Y-27632 (R&D). 24 hours later medium was replaced with differentiation medium: RPMI-1640 with L-Glutamine and 1× B-27 supplement without insulin containing 10 μM CHIR99021 (Tocris). In case of beta-catenin overexpression, the procedure was the same, except that CHIR99021 was replaced with 1 μg/ml doxycycline (Clontech). All cell culture media components were from Life Technologies unless indicated otherwise.
Total RNA was isolated using RNeasy mini kit (Qiagen). cDNA was synthesized from 0.2-1 μg of total RNA (normalized amount between samples within each experiment) using Verso cDNA synthesis kit (Thermo Scientific) according to manufacturers instructions. […] Relative fold changes (FC) in gene expression were calculated using ΔΔCt method (Livak and Schmittgen, 2001). […]
3 μg of total RNA were treated with TURBO DNase (Life Technologies) and purified using RNeasy Minelute RNA cleanup kit (Qiagen). RNA quality was assessed using microcapillary electrophoresis on Agilent 2100 Bioanalyzer with RNA Pico 6000 kit (Agilent) and only RNA with RIN values >8 was processed further. […] The quality of the libraries was assessed using Agilent 2100 Bioanalyzer with the DNA 1000 kit (Agilent). […] Sequencing depth was 12-14 Mio reads per sample. […]

H9 hESC line = assay: Axial stem cell derivation from hESCs by serial passaging in maintenance medium with ligands; assay type: cell-based, human; conditions: for derivation of stable lines on addition of the ligand: added to maintenance medium
Description: (§1) Cells were seeded as described above and treated with 10 μM CHIR for 24 hours. Afterwards cells were split at 1:20-1:30 ratio into Matrigel-coated 6-well plates containing maintenance medium (RPMI-1640 supplemented with L-Glutamine, 1× non-essential amino acids, 1× B-27 supplement without vitamin A and the respective ligands (see Table 1) and the cultures were incubated until they became confluent. Confluent cultures were routinely split at 1:10-1:20 ratio until the end of establishment phase defined at passage 9. Splitting was done with either Passaging solution XF or Versene (Life Technologies). FGF2-containing medium was prepared freshly every week, the media without FGF2—at least every 2 weeks. No manual colony picking or scraping off the differentiated cells was employed at any stage during the establishment of cell lines.
Total RNA was isolated using RNeasy mini kit (Qiagen). cDNA was synthesized from 0.2-1 μg of total RNA (normalized amount between samples within each experiment) using Verso cDNA synthesis kit (Thermo Scientific) according to manufacturers instructions. 1 μl of cDNA (1:5 dilutions) were used as template in 10 μl qPCR reactions. PCR was set up using either pre-designed Taqman Gene Expression Assays together with Taqman Gene Expression Master Mix (both from Thermo Scientific) or custom-designed primers together with Power SYBR Green master mix (Thermo Scientific). All primer and Taqman probe details are listed in, e.g., Table 2. Primer concentration in the reactions was 250 nM for all primers. PCR was performed on QuantStudio 12K Flex Real-Time PCR System (Thermo Scientific) using pre-defined cycling parameters. 2 technical replicates were run for each reaction. Taqman assays and primers used are listed in, e.g., Table 2. GAPDH served as a housekeeping gene in all experiments. Relative fold changes (FC) in gene expression were calculated using ΔΔCt method (Livak and Schmittgen, 2001). Results are presented as mean ΔΔCt±standard error of the mean between biological replicates, unless indicated otherwise. Plots were produced using ggplot2 package (Wickham, 2009) in RStudio software running R version 3.5.1 (R Core Team, 2018).
For immunofluorescent analysis, cells were seeded onto either matrigel-coated glass coverslips or into matrigel-coated 4-well μ-slides (Ibidi). For IF on differentiated motor neurons, AxCS lines were differentiated directly on the coverslips. […] Primary antibody dilutions (e.g., Table 3) in the blocking buffer were added and incubated overnight at 4° C. Next day, cells were washed with PBS 3 times and incubated with secondary antibodies diluted in PBS for 1 hours at RT. Coverslips were mounted using ProLong Gold mounting reagent with DAPI. Images were obtained at 63× magnification using Zeiss Axio Observer.Z1 epifluorescent microscope equipped with Apotome.2 and Zen software (Zeiss).

human iPSC line HMGU #1 = assay: Axial stem cell derivation from human iPS cell line; assay type: cell-based; conditions: 10 μM CHIR99021 with inhibition of TGF-β, human iPSCs
Description: as §1, with “FIG. 6: A) Schematic of axial stem cell derivation from human iPS cell line (HMGU #1). μM concentrations refer to CHIR99021. […] B) Quantitative qPCR analysis of marker gene expression in iPS-derived axial stem cell lines at passage 9. Expression is normalized to GAPDH and plotted as log2 fold change over undifferentiated parental iPS cell line. Error bars represent standard error of the mean between biological replicates (derivations). n=1 to 6. Cells” for “Cells”

## Cc1c[nH]c(-c2cnc(NCCNc3ccc(C#N)cn3)nc2-c2ccc(Cl)cc2Cl)n1 [CHIR99021]
hESCs
  TBXT expression: sustained high level of TBXT
H9 hESC line; 5 μM CHIR99021 alone
  marker expression of derived cell lines: high levels of SOX2 in conjunction with PAX6, but no T, CDX2, MIXL1 or EOMES
H9 hESC line; 5 μM CHIR99021 with FGF2
  marker expression of derived cell lines: high levels of SOX2, TBXT, CDX2, MIXL1, EOMES and very low level or no PAX6
H9 hESC line; 7.5 μM CHIR99021
  marker expression of derived cell lines: intermediate levels of TXBT and PAX6
H9 hESC line; 10 μM CHIR99021, hESC
  toxicity to conversion: toxic to hESC conversion
H9 hESC line; 5 or 7.5 μM CHIR99021, presence or absence of FGF2, hESCs
  derivation of cell lines: enabled the derivation of lines that exhibited compact stem cell colony morphology
H9 hESC line; CHIR99021 lower than 5 μM
  derivation of cell lines: did not promote the formation of cell lines
H9 hESC line; passaging beginning at 24 hours, in presence of CHIR99021
  SOX2 expression of passaged progeny: stably expressing SOX2 at a comparable level to undifferentiated hESCs
Human iPSC line HMGU #1
  derivation of axial cell lines: permissive for the derivation of SOX2/TXBT axial cell lines

## NC(=O)c1ccc(-c2nc(-c3ccc4c(c3)OCO4)c(-c3ccccn3)[nH]2)cc1 [SB-431542]
H9 hESC line; TGF-β inhibition
  spontaneous differentiation and colony compactness of the stem cell lines: reduced spontaneous differentiation and maintained the lines as more compact colonies
H9 hESC line; TGF-β inhibitor applied to maintenance medium
  cell and colony morphology of derived lines: created more compact cells and denser colonies

## FGF2
H9 hESC line; passaging in presence of CHIR99021 with or without FGF2
  sustained TBXT expression on passaging: sustained expression required the presence of FGF2

## TGF-β: Human recombinant TGF-β1 (Peprotech)
H9 hESC line
  derivation of stable lines on addition of the ligand: prohibited the deviation of stable lines altogether

B1: BMP4: Human recombinant BMP4 (R&D Systems) (protein, UniProt P12644 293-408, looked up)
Bone morphogenetic protein 4: SPKHHSQRARKKNKNCRRHSLYVDFSDVGWNDWIVAPPGYQAFYCHGDCPFPLADHLNSTNHAIVQTLVNSVNSSIPKACCVPTELSAISMLYLDEYDKVVLKNYQEMVVEGCGCR
H9 hESC line
  derivation of stable lines on addition of the ligand: prohibited the deviation of stable lines altogether
